According to patent US9783551B2, “Pyranochromenyl phenol derivative, and pharmaceutical composition for treating metabolic syndrome or inflammatory disease” (GLACEUM, INC., priority 2013, dated 2017):

What was measured:
[1] = molecular target: PTP1B (Homo sapiens (Human), UniProt P18031); test: Experiment of PTP1B inhibition (p-NPP dephosphorylation); type: biochemical; settings: 2 mM p-NPP substrate, 30° C., 30 minutes
In short: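 PTP1B reacted with 2 mM p-NPP in 50 mM citrate pH 6.0, 0.1 M NaCl, 1 mM EDTA, 1 mM DTT plus compound at various concentrations, 30 °C for 30 min. Reaction stopped with 1 N NaOH; p-nitrophenol absorbance gives IC50.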

[2] = tested on: BV2 microglia cells; test: BV2 cell NO assay (LPS-induced NO production, Griess reagent); type: cell-based; settings: Mus musculus, BV-2, LPS 1 μg/ml, 24 hours
In short: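 BV2 cells; NO suppression tested only at concentrations showing no cytotoxicity in an MTT assay (0.5 mg/ml MTT, absorbance 540 nm). NO read by absorbance at 540 nm; suppression rate taken as the difference in NO produced between control and treated groups; mean of three repeats.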

[3] = tested on: RAW264.7 macrophages; test: RAW264.7 macrophage NO assay (LPS-induced NO production, Griess reagent); type: cell-based; settings: for IC50: Mus musculus, RAW264.7, NO production, LPS 1 μg/ml, 24 hours; for effect of suppressing the production of NO: RAW264.7 macrophages, in words
In short: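 MTT (0.5 mg/ml, 4 h) viability read at 540 nm set non-cytotoxic compound concentrations for the NO test. NO suppression, read by absorbance at 540 nm, was the difference in NO between control and treated groups; values are means of three repeats.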

[4] = Chemical stability in 1% HCl in MeOH (HPLC); type: physicochemical; settings: for stability in words: until 3 days (72 hours)
Experimental: The relative chemical stability of glabridin of Preparation Example 1, Example 3 (Compound 4), Example 4 (Compound 5) and Example 14 (Compound 15) were compared with each other. That is, 50 mg of each of glabridin, Compound 4, Compound 5, and Compound 15 was exactly weighed, dissolved in 50 ml of 1% HCl in MeOH and 10 ml of 1% NaOH in MeOH, and the concentrations of the compounds were examined by HPLC at each time level of 0, 8 hrs, 12 hrs, 24 hrs, 48 hrs, and 72 hrs. At this time, the concentrations of the compounds remaining in 1% HCl in MeOH and 1% NaOH in MeOH were determined using an internal standard (Compound 14 of Example 13). That is, 10 mg of Compound 14 was exactly weighed and dissolved in 100 ml of acetonitrile, 9 ml of this solution was mixed with 1 ml of the sample aliquoted at each time level, the mixture was analyzed by HPLC, and the concentrations of the compounds in the internal standard and in the above samples were determined by comparing the initial values.
The concentrations of the compounds remaining in 1% HCl in MeOH and 1% NaOH in MeOH at each time level are in the following Table 8 and FIG. 7 and the following Table 9 and FIG. 8, respectively.
The numerical values exceeding 100% in the following Tables 8 and 9 show those measured at a concentration is slightly higher than the initial measurement value, and this is due to the fact that an average value of the measured values was simply shown without considering a statistical error generated during the measurement. Since the measured value of about 95% or more is deemed to have practically no change in concentration, it may be seen that the compounds of the present invention are excellent in chemical stability.

PTP1B, sequence (P18031 whole entry, species assumed): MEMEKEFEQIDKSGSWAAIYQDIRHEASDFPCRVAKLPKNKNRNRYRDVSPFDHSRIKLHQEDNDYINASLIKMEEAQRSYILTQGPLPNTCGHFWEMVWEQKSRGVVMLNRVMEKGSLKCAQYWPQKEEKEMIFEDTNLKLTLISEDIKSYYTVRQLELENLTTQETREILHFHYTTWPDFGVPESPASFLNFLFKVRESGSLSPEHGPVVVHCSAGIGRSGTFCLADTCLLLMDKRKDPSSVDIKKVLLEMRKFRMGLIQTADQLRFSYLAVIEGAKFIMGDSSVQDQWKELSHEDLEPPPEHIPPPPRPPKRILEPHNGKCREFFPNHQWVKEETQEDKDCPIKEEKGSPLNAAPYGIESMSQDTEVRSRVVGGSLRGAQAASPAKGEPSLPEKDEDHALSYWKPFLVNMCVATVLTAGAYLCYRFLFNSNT

Row | Structure (SMILES) | IC50 [1] [µM] | IC50 [2] [µM] | IC50 [3] [µM] | effect of suppressing the production of NO [3] | concentration of compound remaining [4]; 0 [%] | concentration of compound remaining ([4]; 8 h) [%] | concentration of compound remaining ([4]; 24 h) [%] | concentration of compound remaining ([4]; 48 h) [%] | concentration of compound remaining ([4]; 72 h) [%] | stability in words [4]
1 | CCCc1ccc(C2COc3c(ccc4c3CCC(C)(C)O4)C2)c(O)c1 (centres unmarked) [Compound 5, 3-(2-hydroxy-4-propylphenyl)-8,8-dimethyl-2,3,4,8,9,10-hexahydropyrano [2,3-f] chromene] | 2.8 | 3.8 | 5.2 | excellent | 100 | 102 | 102 | 101 | 101 | very stable
2 | CCOc1ccc(C2COc3c(ccc4c3CCC(C)(C)O4)C2)c(O)c1 (centres unmarked) [Compound 15, 3-(2-hydroxy-4-ethoxyphenyl)-8,8-dimethyl-2,3,4,8,9,10-hexahydropyrano [2,3-f] chromene] | 8.6 | 2.7 | 6.8 | excellent | 100 | 98 | 100 | 98 | 100 | very stable
